# Where a name gives a salt, the structure may show the parent alone. Read-outs that look alike come from different tables or passages of the source.
# Legend:
# TEM-1 β-lactamase = TEM-1 β-lactamase (Escherichia coli, UniProt P62593); assay: β-lactamase inhibition, nitrocefin hydrolysis (TEM-1); assay type: biochemical
# Protocol: (§1) The IC50 value of each compound was determined as follows. Following a 10 minute incubation of a dilute solution of enzyme (2.56 nM) and inhibitor (<0.64 μM), a 50 μL aliquot of the incubation mixture was further diluted into 1 mL nitrocefin (a substrate) solution, and the rate of hydrolysis was measured during a 1 minute period by monitoring the absorbance of nitrocefin as a function of time.
# [1] = molecular target: β-lactamase of Enterobacter cloacae P99 (Enterobacter cloacae, UniProt P05364); assay: β-lactamase inhibition, nitrocefin hydrolysis (P99); assay type: biochemical; details: for β-lactamase inhibiting activity greater than compound 9 by a factor, P99: factor relative to compound 9
# Chain of β-lactamase of Enterobacter cloacae P99 (P05364 21-381): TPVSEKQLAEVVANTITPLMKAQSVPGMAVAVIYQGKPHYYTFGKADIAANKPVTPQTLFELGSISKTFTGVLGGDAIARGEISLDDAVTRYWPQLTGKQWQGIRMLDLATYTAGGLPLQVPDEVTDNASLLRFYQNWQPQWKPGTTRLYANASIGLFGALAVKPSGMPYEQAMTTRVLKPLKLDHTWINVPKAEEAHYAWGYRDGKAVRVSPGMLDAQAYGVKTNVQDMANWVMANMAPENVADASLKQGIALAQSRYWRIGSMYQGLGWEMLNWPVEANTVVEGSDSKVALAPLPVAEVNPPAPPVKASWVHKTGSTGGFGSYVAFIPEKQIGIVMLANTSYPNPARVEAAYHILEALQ
# Protocol: as §1
# [2] = 10 minute incubation of enzyme (2.56 nM) and inhibitor, nitrocefin substrate, read-out: IC50 (uM) TEM-1
# [3] = 10 minute incubation of enzyme (2.56 nM) and inhibitor, nitrocefin substrate, read-out: IC50 (uM) Ent. cloacae P99
# Chain of TEM-1 β-lactamase (P62593 24-286 limits assumed): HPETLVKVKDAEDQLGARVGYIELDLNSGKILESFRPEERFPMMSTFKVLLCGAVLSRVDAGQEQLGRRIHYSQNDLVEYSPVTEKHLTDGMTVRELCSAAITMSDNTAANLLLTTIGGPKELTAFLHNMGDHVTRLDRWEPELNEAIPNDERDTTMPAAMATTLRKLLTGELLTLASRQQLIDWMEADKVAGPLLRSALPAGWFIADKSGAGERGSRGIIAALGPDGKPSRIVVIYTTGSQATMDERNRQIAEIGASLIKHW
Compound,IC50 (TEM-1 β-lactamase; [2]) [µM],"IC50 [1, 3] [µM]",other results
"CC1(COC(=O)CCl)C(C(=O)O)N2C(=O)C(=CC(=O)O)C2S1(=O)=O (stereo not drawn) [Compound 8b, Disodium salt of 2β-(chloroacetoxymethyl)-6-[(Z)-carboxymethylene]-penicillinate 1,1-dioxide]",0.19,–,–
"CC1(COC(=O)Cc2ccc(O)c(O)c2)C(C(=O)O)N2C(=O)C(=CC(=O)O)C2S1(=O)=O (stereo not drawn) [Compound 8i, Disodium Salt of 2β-[(3′,4′-Dihydroxyphenyl)acetoxy]methyl-6-[(Z)-carboxymethylene]-1,1-dioxopenicillinate]",–,0.37,–
"C[C@]1(COC(=O)Cc2ccccc2)[C@H](C(=O)O)N2C(=O)/C(=C/C(=O)O)[C@H]2S1(=O)=O [Compound 8d, Disodium salt of 2β-(phenylacetoxymethyl)-6-[(Z)-carboxymethylene]-penicillinate 1,1-dioxide]",–,–,IC50 (TEM-1 β-lactamase): 0.015 µM; IC50 [1]: 0.54 µM
"COC(=O)/C=C1/C(=O)N2[C@@H](C(=O)O)[C@](C)(CCl)S(=O)(=O)[C@H]12 [Compound 12b, Sodium salt of 2β-(chloromethyl)-6-[(Z)-(methoxycarbonyl)methylene]-penicillanic acid 1,1 dioxide]",–,6.96,–
"CC(=O)OCC1(C)C(C(=O)O)N2C(=O)C(=Cc3ccccn3)C2S1(=O)=O (stereo not drawn) [Compound 29a, Sodium 2β-(acetoxymethyl)-1,1-dioxo-6-[(Z)-2′-pyridylmethylene]penicillinate]",0.004,0.062,β-lactamase inhibiting activity against TEM-1 (in words) (TEM-1 β-lactamase): potent; β-lactamase inhibiting activity against P99 (in words) [1]: potent
"Cn1nnnc1SCC(=O)OCC1(C)C(C(=O)O)N2C(=O)C(=CC(=O)O)C2S1(=O)=O (stereo not drawn) [Compound 8g, Disodium salt of 2β-[[(1-methyl-1H-tetrazol-5-yl)thio]acetoxymethyl]-6-[(Z)-carboxymethylene]penicillinate 1,1-dioxide]",0.23,0.64,–
"C[C@]1(COC=O)[C@H](C(=O)O)N2C(=O)/C(=C/C(=O)O)[C@H]2S1(=O)=O [Compound 8c, Disodium salt of 2β-(formyloxymethyl)-6-[(Z)-carboxymethylene]-penicillinate 1,1-dioxide]",–,0.3,"β-lactamase inhibiting activity greater than compound 9 by a factor, P99 [1]: ~2"
"C[C@]1(C=CC#N)[C@H](C(=O)O)N2C(=O)/C(=C/C(=O)O)[C@H]2S1(=O)=O (mixture of isomers) [Compound 17, Disodium Salt of 2β-[(E/Z)-(cyanoethenyl)]-6-[(Z)-carboxymethylene]-penicillinate 1,1-dioxide]",–,6.76,–
"COC(=O)C=C1C(=O)N2C(C(=O)O)C(C)(COC(C)=O)S(=O)(=O)C12 (stereo not drawn) [Compound 8e, Sodium salt of 2β-(acetoxymethyl)-6-[(Z)-(methoxycarbonyl)methylene]-penicillinic acid 1,1 dioxide]",–,2.66,–
"CC1(CCl)C(C(=O)O)N2C(=O)/C(=C/C(=O)O)C2S1(=O)=O (stereo not drawn) [Compound 12c, Disodium salt of 2β-(chloromethyl)-6-[(Z)-carboxymethylene]penicillinate 1,1-dioxide]",120,105,–
"CC(C)(C)OC(=O)/C=C1/C(=O)N2[C@@H](C(=O)O)[C@](C)(CCl)S(=O)(=O)[C@H]12 [Compound 12a, Sodium salt of 2β-(chloromethyl)-6-[(Z)-(t-butoxycarbonyl)methylene]-penicillinic acid 1,1 dioxide]",39,7.62,–
"COC(=O)/C=C1/C(=O)N2[C@@H](C(=O)O)[C@](C)(COC(=O)CSc3nnnn3C)S(=O)(=O)[C@H]12 [Compound 8h, Sodium salt of 2β-[[(1-methyl-1H-tetrazol-5-yl)thio]acetoxymethyl]-6-[(Z)-(methoxycarbonyl)methylene]penicillinate 1,1-dioxide]",–,3.69,–
"CC(=O)OC[C@@]1(C)[C@H](C(=O)O)N2C(=O)/C(=C/C(=O)O)[C@H]2S1(=O)=O [Compound 8a, Disodium salt of 2β-(acetoxymethyl)-6-[(Z)-carboxymethylene]-penicillinic acid-1,1-dioxide]",0.213,0.383,"β-lactamase inhibiting activity greater than compound 9 by a factor, P99 [1]: ~2"
"C[C@]1(COC(=O)Cc2ccccc2)[C@H](C(=O)O)N2C(=O)/C(=C/c3ccccn3)[C@H]2S1(=O)=O [Compound 29b, Sodium 1,1-Dioxo-2β-(phenylacetoxy)methyl-6-[(Z)-2′-pyridylmethylene]penicillinate]",–,–,IC50 (TEM-1 β-lactamase): 0.39 µM; β-lactamase inhibiting activity against TEM-1 (in words) (TEM-1 β-lactamase): potent; β-lactamase inhibiting activity against P99 (in words) [1]: potent
